Test results as given in publication PMC5039532, “Design and Synthesis of Analogues of Marine Natural Product Galaxamide, an N-methylated Cyclic Pentapeptide, as Potential Anti-Tumor Agent in Vitro” (Marine Drugs, 2016).
≈ marks a conversion by molar mass, not a printed value. Where a SMILES comes first, the peptide text is derived from it. [ ]: non-standard residue; d: D form. NMeL = CN[C@@H](CC(C)C)C(=O)O

Experiments:
SMMC-7721 cells [1] = test: Cell morphological observation, Hoechst33342 staining; assay type: cell-based, human; conditions: 4, 8 and 16 μg/mL, 48 h, fluorescence microscopy
Procedure: Exponentially growing SMMC-7721 cells (1 × 10^5 cells/mL) were incubated for 48 h with 4, 8, 16 μg/mL of galaxamide and representative analogues. Apoptotic nuclear morphology was visualized by the Hoechsst33342 staining technique. Cells were fixed with 3.7% of paraformaldehyde for 10 min at room temperature and washed three times with PBS. After fixation, cells were stained using Hoechsst33342 (10 μg/mL) and incubated in the darkness for 10 min. After washing three times with PBS, cells were visualized using fluorescence microscope.

SMMC-7721 cells [2] = test: Cell cycle analysis by PI staining and flow cytometry; assay type: cell-based, human; conditions: 4, 8 and 16 μg/mL, 48 h
Procedure: SMMC-7721 cells with the density of about 1.5 × 10^5 were incubated with galaxamide and representative analogues (4, 8, 16 μg/mL) for 48 h. Afterwards, collected cells were washed twice with PBS and centrifugation (1000 rpm, 5 min), then fixed using 70% ethanol for 12 h at 4 °C. Ethanol was removed by centrifugation (2000 rpm, 5 min), and the cells were washed twice with PBS. Cells were then resuspended in […] PI and kept at 37 °C for 15 min. The cell cycle was analyzed by flow cytometry measuring the amount of PI-labeled DNA in fixed cells.

SMMC-7721 cells [3] = test: Cell apoptotic analysis, annexin V/PI staining, flow cytometry; assay type: cell-based, human; conditions: 4, 8 and 16 μg/mL, 48 h, annexin V/PI double staining
Procedure: The apoptotic cells were quantified using an Annexin V-FITC (Sigma-Aldrich, St. Louis, MO, USA) cell apoptosis assay kit according to instruction provided with kit. In brief, about 1.5 × 10^5 cells were plated in 6-well plates and treated with galaxamide and representative analogues (4, 8, 16 μg/mL) for 48 h. The cells were resuspended in […] binding buffer. Afterward, […] annexin V-fluorescein isothiocyanate (FITC) was added and then incubated in darkness at room temperature for 10 min. The cells were again resuspended in […] binding buffer and stained with […] PI. The prepared cells were then analyzed using a flow cytometry (Coulter Epics Elite, Miami, FL, USA). The cells in the FITC-positive and PI-negative fraction were regarded as apoptotic cells.

[4] = system: human hepatocellular carcinoma HepG2; assay type: cell-based; conditions: 48 h
Procedure: (§1) Lung cancer A549, drug-resistant lung cancer A549-DPP, human hepatocellular carcinoma HepG2 and hepatocellular carcinoma SMMC-7721 cells obtained from the China cell bank of the Institute of Biochemistry and were cultured in DMEM culture medium (DMEM, Corning, NY, USA) containing 10% fetal bovine serum (FBS, Hyclone, Logan, UT, USA), 1% penicillin-streptomycin and an antifungal agent in a 5% CO2 humidified atmosphere at 37 °C. The culture medium was replaced once in a day. Trypsin digestion method was adopted for cell propagation. Upon reaching 80%–90% confluence, the cells were rinsed twice with PBS. A certain amount of 0.25% trypsin digestion solution was then added and maintained for 3–5 min at 37 °C. Afterward, DMEM culture medium containing 10% fetal bovine serum was added to terminate the digestion. The cells were then blown well to form single cell suspensions.
(§2) The cell viability was determined by measuring the ability of cells to transform MTT (Genview, Houston, TX, USA) to a purple formazan dye. The cells were seeded in 96-well tissue culture plates at 2.5 × 10^3 cells/well for 24 h. The cells were then incubated with galaxamide and its analogues for 48 h. After incubation, 20 μL/well of MTT solution (5 mg/mL phosphate buffered saline) were added and incubated for 5 h. The medium was aspirated and replaced with 100 μL/well of DMSO to dissolve the formazan salt. The color intensity of the formazan solution, which reflects the cell growth condition, was measured at 570 nm using a microplate spectrophotometer (SpectroAma™ 250, Winooski, VT, USA).

[5] = system: hepatocellular carcinoma SMMC-7721 cells; assay type: cell-based, human; conditions: 48 h
Procedure: as §1, §2

[6] = system: drug-resistant lung cancer cell line A549/DPP; assay type: cell-based, human; conditions: 48 h
Procedure: as §1, §2

[7] = system: Lung cancer cell line A549; assay type: cell-based, human; conditions: 48 h
Procedure: as §1, §2

| SMILES | IC50 Value HepG2 [4] [µg/mL] | IC50 Value SMMC-7721 [5] [µg/mL] | IC50 Value A549-DPP [6] [µg/mL] | IC50 Value A549 [7] [µg/mL] | morphological changes (in words) (SMMC-7721 cells [1]) | cell-cycle arrest (in words) (SMMC-7721 cells [2]) | induction of apoptosis (in words) (SMMC-7721 cells [3]) |
| --- | --- | --- | --- | --- | --- | --- | --- |
| CC(C)C[C@@H]1NC(=O)[C@@H](Cc2ccccc2)NC(=O)[C@H](CC(C)C)N(C)C(=O)[C@H](CC(C)C)NC(=O)[C@@H](CC(C)C)NC1=O [Compound 23, cyclo(D-Phe-Leu-D-Leu-Leu-N-Me-Leu)] | 26.62 (≈ 43.4 µM) | 4.32 (≈ 7.04 µM) | 9.13 (≈ 14.9 µM) | 5.85 (≈ 9.53 µM) | – | – | – |
| CC(C)C[C@@H]1NC(=O)[C@H](CC(C)C)N(C)C(=O)[C@@H](Cc2ccccc2)NC(=O)[C@@H](CC(C)C)N(C)C(=O)[C@H](CC(C)C)NC1=O [Compound 26, cyclo(D-Phe-N-Me-Leu-Leu-Leu-D-N-Me-Leu)] | 7.12 (≈ 11.3 µM) | 6.65 (≈ 10.6 µM) | 11.33 (≈ 18 µM) | 4.27 (≈ 6.8 µM) | – | – | – |
| CC(C)C[C@@H]1NC(=O)[C@H](CC(C)C)N(C)C(=O)[C@H](CC(C)C)NC(=O)[C@H](CC(C)C)N(C)C(=O)[C@H](CC(C)C)NC1=O [Galaxamide, galaxamide] (cyclo(LL[NMeL]L[NMeL])) | – | – | – | – | resulted in cell detachment from cell culture plates | arresting the cell cycle in the G0/G1 phase | – |

The next lines start with results.

| IC50 Value HepG2 [4] [µg/mL] | IC50 Value SMMC-7721 [5] [µg/mL] | IC50 Value A549-DPP [6] [µg/mL] | IC50 Value A549 [7] [µg/mL] | SMILES | morphological changes (in words) (SMMC-7721 cells [1]) | cell-cycle arrest (in words) (SMMC-7721 cells [2]) | induction of apoptosis (in words) (SMMC-7721 cells [3]) |
| --- | --- | --- | --- | --- | --- | --- | --- |
| 6.41 (≈ 10.4 µM) | 1.44 (≈ 2.35 µM) | 12.22 (≈ 19.9 µM) | 9.4 (≈ 15.3 µM) | CC(C)C[C@@H]1NC(=O)[C@H](CC(C)C)NC(=O)[C@@H](Cc2ccccc2)NC(=O)[C@H](CC(C)C)N(C)C(=O)[C@@H](CC(C)C)NC1=O [Compound 22, cyclo(D-Phe-Leu-Leu-D-Leu-N-Me-Leu)] | resulted in cell detachment from cell culture plates | arresting the cell cycle in the G0/G1 phase | induced SMMC-7721 cell apoptosis in dose-dependent manner |
| 7.92 (≈ 12.9 µM) | 7.04 (≈ 11.5 µM) | 9.26 (≈ 15.1 µM) | 3.45 (≈ 5.62 µM) | CC(C)C[C@@H]1NC(=O)[C@H](Cc2ccccc2)NC(=O)[C@@H](CC(C)C)N(C)C(=O)[C@H](CC(C)C)NC(=O)[C@H](CC(C)C)NC1=O [Compound 24, cyclo(Phe-Leu-Leu-Leu-D-N-Me-Leu)] | – | – | – |
| 22.88 (≈ 37.3 µM) | 6.85 (≈ 11.2 µM) | 20.43 (≈ 33.3 µM) | 5.18 (≈ 8.44 µM) | CC(C)C[C@@H]1NC(=O)[C@@H](Cc2ccccc2)NC(=O)[C@@H](CC(C)C)N(C)C(=O)[C@@H](CC(C)C)NC(=O)[C@@H](CC(C)C)NC1=O [Compound 25, cyclo(D-Phe-Leu-D-Leu-D-Leu-D-N-Me-Leu)] | – | – | – |
